Reference: ChEMBL document CHEMBL1201862, “PubChem BioAssay data set” (2004)
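Results reflect a 48-hour exposure of cells in 96-well plates to compound at five concentrations. GI50: concentration for 50% inhibition of growth.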 The source made the active and inactive calls. No stated cut-off is given here; in the data, active = GI50 up to about 1.1 µM and inactive = higher.

Experiments:
Assay in all cases: growth of human tumour cells (NCI), 48 h
HCT-15 = system: HCT-15
A498 = system: A498
K562 = system: K562
RXF 393 = system: RXF 393
ACHN = system: ACHN
Hs-578T = system: Hs-578T
NCI/ADR-RES = system: NCI/ADR-RES
NCI-H226 = system: NCI-H226
COLO 205 = system: COLO 205
LOX IMVI = system: LOX IMVI
HOP-62 = system: HOP-62
OVCAR-8 = system: OVCAR-8
MCF7 = system: MCF7
CCRF-CEM = system: CCRF-CEM
TK-10 = system: TK-10
UACC-257 = system: UACC-257
SF-268 = system: SF-268
IGROV-1 = system: IGROV-1
SNB-75 = system: SNB-75
OVCAR-5 = system: OVCAR-5
KM12 = system: KM12
SK-OV-3 = system: SK-OV-3
MOLT-4 = system: MOLT-4
DU-145 = system: DU-145
SW-620 = system: SW-620
CAKI-1 = system: CAKI-1
PC-3 = system: PC-3
OVCAR-3 = system: OVCAR-3
RPMI-8226 = system: RPMI-8226
OVCAR-4 = system: OVCAR-4
HL-60 = system: HL-60
M14 = system: M14
BT-549 = system: BT-549
HCC 2998 = system: HCC 2998
EKVX = system: EKVX
NCI-H460 = system: NCI-H460
SK-MEL-28 = system: SK-MEL-28
UACC-62 = system: UACC-62
MDA-MB-435 = system: MDA-MB-435
HT-29 = system: HT-29
786-0 = system: 786-0
U-251 = system: U-251
SK-MEL-5 = system: SK-MEL-5
SN12C = system: SN12C
UO-31 = system: UO-31
NCI-H23 = system: NCI-H23
SR = system: SR
NCI-H522 = system: NCI-H522
A549 = system: A549
SK-MEL-2 = system: SK-MEL-2
SNB-19 = system: SNB-19
HCT-116 = system: HCT-116
HOP-92 = system: HOP-92
SF-539 = system: SF-539
SF-295 = system: SF-295
T47D = system: T47D
MDA-MB-231 = system: MDA-MB-231
Malme-3M = system: Malme-3M

For `COc1ccc(COCC[C@H](C)OC2OC(CO)C(O)C(O)C2O)cc1` (stereo partly specified), the GI50 (HCT-15) was greater than 100 µM, the GI50 (A498) was > 100 µM (inactive) and the GI50 (K562) was > 100 µM (inactive). The GI50 (RXF 393) was > 100 µM (inactive), the GI50 (ACHN) was > 100 µM (inactive) and the GI50 (Hs-578T) was > 100 µM (inactive). The GI50 (NCI/ADR-RES) was > 100 µM (inactive), the GI50 (NCI-H226) was > 100 µM (inactive) and the GI50 (COLO 205) was > 100 µM (inactive). For the same molecule, the GI50 (LOX IMVI) was > 100 µM (inactive), the GI50 (HOP-62) was > 100 µM (inactive) and the GI50 (OVCAR-8) was > 100 µM (inactive). The GI50 (MCF7) was > 100 µM (inactive), the GI50 (CCRF-CEM) was > 100 µM (inactive) and the GI50 (TK-10) was > 100 µM (inactive). The GI50 (UACC-257) was > 100 µM (inactive), the GI50 (SF-268) was > 100 µM (inactive) and the GI50 (IGROV-1) was > 100 µM (inactive). For the same molecule, the GI50 (SNB-75) was > 100 µM (inactive), the GI50 (OVCAR-5) was > 100 µM (inactive) and the GI50 (KM12) was > 100 µM (inactive). The GI50 (SK-OV-3) was > 100 µM (inactive), the GI50 (MOLT-4) was > 100 µM (inactive) and the GI50 (DU-145) was > 100 µM (inactive). For the same molecule, the GI50 (SW-620) was > 100 µM (inactive), the GI50 (CAKI-1) was > 100 µM (inactive) and the GI50 (PC-3) was > 100 µM (inactive). The GI50 (OVCAR-3) was > 100 µM (inactive), the GI50 (RPMI-8226) was > 100 µM (inactive) and the GI50 (OVCAR-4) was > 100 µM (inactive). The GI50 (HL-60) was > 100 µM (inactive), the GI50 (M14) was > 100 µM (inactive) and the GI50 (BT-549) was > 100 µM (inactive). For the same molecule, the GI50 (HCC 2998) was > 100 µM (inactive), the GI50 (EKVX) was > 100 µM (inactive) and the GI50 (NCI-H460) was > 100 µM (inactive). The GI50 (SK-MEL-28) was > 100 µM (inactive), the GI50 (UACC-62) was > 100 µM (inactive) and the GI50 (MDA-MB-435) was > 100 µM (inactive). The GI50 (HT-29) was > 100 µM (inactive), the GI50 (786-0) was > 100 µM (inactive) and the GI50 (U-251) was > 100 µM (inactive). The GI50 (SK-MEL-5) was > 100 µM (inactive), the GI50 (SN12C) was > 100 µM (inactive) and the GI50 (UO-31) was > 100 µM (inactive). The GI50 (NCI-H23) was > 100 µM (inactive), the GI50 (SR) was > 100 µM (inactive) and the GI50 (NCI-H522) was > 100 µM (inactive). For the same molecule, the GI50 (A549) was > 100 µM (inactive), the GI50 (SK-MEL-2) was > 100 µM (inactive) and the GI50 (SNB-19) was > 100 µM (inactive). The GI50 (HCT-116) was > 100 µM (inactive), the GI50 (HOP-92) was > 100 µM (inactive) and the GI50 (SF-539) was > 100 µM (inactive). The GI50 (SF-295) was > 100 µM (inactive), the GI50 (T47D) was > 100 µM (inactive) and the GI50 (MDA-MB-231) was > 100 µM (inactive).
`O=[N+]([O-])c1cc(Cl)cc2cc(Cl)cnc12` was tested, and the GI50 (HCT-15) was greater than 100 µM, the GI50 (A498) was 48 µM (inactive) and the GI50 (K562) was > 100 µM (inactive). For the same molecule, the GI50 (RXF 393) was > 100 µM (inactive), the GI50 (ACHN) was > 100 µM (inactive) and the GI50 (Hs-578T) was 25.9 µM (inactive). The GI50 (NCI/ADR-RES) was > 100 µM (inactive), the GI50 (NCI-H226) was > 100 µM (inactive) and the GI50 (COLO 205) was > 100 µM (inactive). For the same molecule, the GI50 (LOX IMVI) was > 100 µM (inactive), the GI50 (HOP-62) was > 100 µM (inactive) and the GI50 (OVCAR-8) was 98.9 µM (inactive). For the same molecule, the GI50 (CCRF-CEM) was > 100 µM (inactive), the GI50 (TK-10) was > 100 µM (inactive) and the GI50 (UACC-257) was 61.4 µM (inactive). The GI50 (SF-268) was > 100 µM (inactive), the GI50 (IGROV-1) was 7.35 µM (inactive) and the GI50 (Malme-3M) was > 100 µM (inactive). For the same molecule, the GI50 (SNB-75) was 15.6 µM (inactive), the GI50 (OVCAR-5) was > 100 µM (inactive) and the GI50 (MOLT-4) was > 100 µM (inactive). For the same molecule, the GI50 (DU-145) was > 100 µM (inactive), the GI50 (SW-620) was > 100 µM (inactive) and the GI50 (CAKI-1) was > 100 µM (inactive). For the same molecule, the GI50 (PC-3) was 93.5 µM (inactive), the GI50 (OVCAR-3) was > 100 µM (inactive) and the GI50 (RPMI-8226) was > 100 µM (inactive). The GI50 (OVCAR-4) was 35.7 µM (inactive), the GI50 (HL-60) was 62.4 µM (inactive) and the GI50 (M14) was > 100 µM (inactive). The GI50 (BT-549) was > 100 µM (inactive), the GI50 (HCC 2998) was > 100 µM (inactive) and the GI50 (EKVX) was 83.2 µM (inactive). The GI50 (NCI-H460) was > 100 µM (inactive), the GI50 (SK-MEL-28) was > 100 µM (inactive) and the GI50 (UACC-62) was 53.2 µM (inactive). The GI50 (MDA-MB-435) was > 100 µM (inactive), the GI50 (HT-29) was > 100 µM (inactive) and the GI50 (786-0) was > 100 µM (inactive). The GI50 (U-251) was > 100 µM (inactive), the GI50 (SK-MEL-5) was 62.5 µM (inactive) and the GI50 (SN12C) was > 100 µM (inactive). For the same molecule, the GI50 (UO-31) was > 100 µM (inactive), the GI50 (NCI-H23) was > 100 µM (inactive) and the GI50 (SR) was 63.8 µM (inactive). For the same molecule, the GI50 (NCI-H522) was > 100 µM (inactive), the GI50 (A549) was > 100 µM (inactive) and the GI50 (SNB-19) was > 100 µM (inactive). For the same molecule, the GI50 (HCT-116) was 95.1 µM (inactive), the GI50 (HOP-92) was > 100 µM (inactive) and the GI50 (SF-539) was > 100 µM (inactive). For the same molecule, the GI50 (SF-295) was > 100 µM (inactive), the GI50 (T47D) was 16.4 µM (inactive) and the GI50 (MDA-MB-231) was 60.1 µM (inactive).
